# From patent US20250230165A1, “HETEROCYCLIC COMPOUNDS FOR USE IN THE TREATMENT OF CANCER” (ARTIOS PHARMA LIMITED, priority 2021, published 2025)
# Molecular target: T1, Human Polθ polymerase domain (aa1820-2590) (Homo sapiens, UniProt O75417)
# T1 construct: Human Polθ polymerase domain (aa1820-2590) was expressed in E. coli; made in house; host or cells: E. coli
# T1 sequence (O75417 1820-2590): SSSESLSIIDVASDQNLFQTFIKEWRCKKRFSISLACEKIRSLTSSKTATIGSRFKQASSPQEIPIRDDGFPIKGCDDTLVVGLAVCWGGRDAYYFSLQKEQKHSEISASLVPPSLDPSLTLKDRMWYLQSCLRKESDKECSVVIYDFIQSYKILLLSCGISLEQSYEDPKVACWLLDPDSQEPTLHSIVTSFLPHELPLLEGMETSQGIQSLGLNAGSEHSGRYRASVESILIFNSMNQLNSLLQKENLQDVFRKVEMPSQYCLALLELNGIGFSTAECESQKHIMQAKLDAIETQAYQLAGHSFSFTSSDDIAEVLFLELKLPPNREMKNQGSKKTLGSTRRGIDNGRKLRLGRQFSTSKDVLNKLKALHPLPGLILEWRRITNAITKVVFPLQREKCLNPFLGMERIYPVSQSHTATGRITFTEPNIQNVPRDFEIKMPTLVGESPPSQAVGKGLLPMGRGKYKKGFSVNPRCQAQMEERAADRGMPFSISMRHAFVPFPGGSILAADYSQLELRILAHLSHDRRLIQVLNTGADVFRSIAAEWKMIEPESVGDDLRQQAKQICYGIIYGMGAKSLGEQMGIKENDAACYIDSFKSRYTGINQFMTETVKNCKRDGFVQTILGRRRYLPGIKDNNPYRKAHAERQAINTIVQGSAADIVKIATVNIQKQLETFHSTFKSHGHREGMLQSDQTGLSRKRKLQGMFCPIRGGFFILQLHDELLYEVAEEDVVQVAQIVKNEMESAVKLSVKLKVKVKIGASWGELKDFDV
# Test: Polθ Polymerase Domain Kinact/KI Assay (PicoGreen)
# Assay type: biochemical
# Details: 0.8 nM Polθ, 100 nM DNA substrate, kobs vs [I] fit for 2-step covalent inhibitor
# Outline: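 Time-dependent inhibition was followed with 0.8 nM polymerase domain, 100 nM DNA substrate and […], reactions quenched over 60 min and quantified by PicoGreen. Kinact and KI came from a secondary plot of kobs against inhibitor concentration.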
row,SMILES,Kinact/Kl [M⁻¹ s⁻¹]
1,"C=C(CN(C)C)C(=O)N1CC(CN2C[C@H]3CC(=O)N(c4cc(C(F)(F)F)cc(C)n4)[C@@H]3C(=O)N(C)c3cccc(Cl)c32)C1 [Example 297, (3aR,11aS)-6-chloro-5-((1-(2-((dimethylamino)methyl)acryloyl)azetidin-3-yl)methyl)-10-methyl-1-(6-methyl-4-(trifluoromethyl)pyridin-2-yl)-1,3a,4,5,10,11a-hexahydro-2H-benzo[b]pyrrolo[2,3-f][1,4]diazocine-2,11(3H)-dione]",1.47e+06
2,"C=C(CN(C)C)C(=O)N1CC(CCCN2C[C@H]3CC(=O)N(c4cc(C(F)(F)F)cc(C)n4)[C@@H]3C(=O)N(C)c3cccc(Cl)c32)C1 [Example 299, (3aR,11aS)-6-chloro-5-(3-(1-(2-((dimethylamino)methyl)acryloyl)azetidin-3-yl)propyl)-10-methyl-1-(6-methyl-4-(trifluoromethyl)pyridin-2-yl)-1,3a,4,5,10,11a-hexahydro-2H-benzo[b]pyrrolo[2,3-f][1,4]diazocine-2,11(3H)-dione]",1.99e+06
3,"C=C(CN(C)C)C(=O)N1CC(C(F)CCCN2C[C@H]3CC(=O)N(c4cc(C(F)(F)F)cc(C)n4)[C@@H]3C(=O)N(C)c3cccc(Cl)c32)C1 (stereo partly drawn) [Example 300, (3aR,11aS)-6-chloro-5-(4-(1-(2-((dimethylamino)methyl)acryloyl)azetidin-3-yl)-4-fluorobutyl)-10-methyl-1-(6-methyl-4-(trifluoromethyl)pyridin-2-yl)-1,3a,4,5,10,11a-hexahydro-2H-benzo[b]pyrrolo[2,3-f][1,4]diazocine-2,11(3H)-dione]",3.93e+06
4,"C=C(CN(C)C)C(=O)N1CC(CCC(F)CN2C[C@H]3CC(=O)N(c4cc(C(F)(F)F)cc(C)n4)[C@@H]3C(=O)N(C)c3cccc(Cl)c32)C1 (stereo partly drawn) [Example 302, (3aR,11aS)-6-chloro-5-(4-(1-(2-((dimethylamino)methyl)acryloyl)azetidin-3-yl)-2-fluorobutyl)-10-methyl-1-(6-methyl-4-(trifluoromethyl)pyridin-2-yl)-1,3a,4,5,10,11a-hexahydro-2H-benzo[b]pyrrolo[2,3-f][1,4]diazocine-2,11(3H)-dione]",3.04e+06
5,"Cc1cc(C(F)(F)F)cc(N2C(=O)C[C@@H]3CN(Cc4cn5c(n4)CN(C(=O)/C=C/C(F)F)CC5)c4c(Cl)cccc4N(C)C(=O)[C@H]32)n1 [Example 306, (3aR,11aS)-6-chloro-5-((7-((E)-4,4-difluorobut-2-enoyl)-5,6,7,8-tetrahydroimidazo[1,2-a]pyrazin-2-yl)methyl)-10-methyl-1-(6-methyl-4-(trifluoromethyl)pyridin-2-yl)-1,3a,4,5,10,11a-hexahydro-2H-benzo[b]pyrrolo[2,3-f][1,4]diazocine-2,11(3H)-dione]",1.54e+06
6,"Cc1cc(C(F)(F)F)cc(N2C(=O)C[C@@H]3CN(Cc4cn5c(n4)CN(C(=O)/C=C/C(F)(F)F)CC5)c4c(Cl)cccc4N(C)C(=O)[C@H]32)n1 [Example 307, (3aR,11aS)-6-chloro-10-methyl-1-(6-methyl-4-(trifluoromethyl)pyridin-2-yl)-5-((7-((E)-4,4,4-trifluorobut-2-enoyl)-5,6,7,8-tetrahydroimidazo[1,2-a]pyrazin-2-yl)methyl)-1,3a,4,5,10,11a-hexahydro-2H-benzo[b]pyrrolo[2,3-f][1,4]diazocine-2,11(3H)-dione]",1.35e+06

# The remaining lines, values ahead:
row,Kinact/Kl [M⁻¹ s⁻¹],SMILES
1,1.62e+06,"Cc1cc(C(F)(F)F)cc(N2C(=O)C[C@@H]3CN(CCCC(F)CNC(=O)/C=C/CN(C)C)c4c(Cl)cccc4N(C)C(=O)[C@H]32)n1 (stereo partly drawn) [Example 295, (E)-N-(5-((3aR,11aS)-6-chloro-10-methyl-1-(6-methyl-4-(trifluoromethyl)pyridin-2-yl)-2,11-dioxo-1,2,3,3a,4,10,11,11a-octahydro-5H-benzo[b]pyrrolo[2,3-f][1,4]diazocin-5-yl)-2-fluoropentyl)-4-(dimethylamino)but-2-enamide]"
2,3e+06,"Cc1cc(C(F)(F)F)cc(N2C(=O)C[C@@H]3CN(CCCC(F)(F)CNC(=O)/C=C/CN(C)C)c4c(Cl)cccc4N(C)C(=O)[C@H]32)n1 [Example 296, (E)-N-(5-((3aR,11aS)-6-chloro-10-methyl-1-(6-methyl-4-(trifluoromethyl)pyridin-2-yl)-2,11-dioxo-1,2,3,3a,4,10,11,11a-octahydro-5H-benzo[b]pyrrolo[2,3-f][1,4]diazocin-5-yl)-2,2-difluoropentyl)-4-(dimethylamino)but-2-enamide]"
3,3.64e+06,"C=C(CN(C)C)C(=O)N1CC(CCN2C[C@H]3CC(=O)N(c4cc(C(F)(F)F)cc(C)n4)[C@@H]3C(=O)N(C)c3cccc(Cl)c32)C1 [Example 298, (3aR,11aS)-6-chloro-5-(2-(1-(2-((dimethylamino)methyl)acryloyl)azetidin-3-yl)ethyl)-10-methyl-1-(6-methyl-4-(trifluoromethyl)pyridin-2-yl)-1,3a,4,5,10,11a-hexahydro-2H-benzo[b]pyrrolo[2,3-f][1,4]diazocine-2,11(3H)-dione]"
4,1.78e+06,"C=C(CN(C)C)C(=O)N1CC(CC(F)CCN2C[C@H]3CC(=O)N(c4cc(C(F)(F)F)cc(C)n4)[C@@H]3C(=O)N(C)c3cccc(Cl)c32)C1 (stereo partly drawn) [Example 301, (3aR,11aS)-6-chloro-5-(4-(1-(2-((dimethylamino)methyl)acryloyl)azetidin-3-yl)-3-fluorobutyl)-10-methyl-1-(6-methyl-4-(trifluoromethyl)pyridin-2-yl)-1,3a,4,5,10,11a-hexahydro-2H-benzo[b]pyrrolo[2,3-f][1,4]diazocine-2,11(3H)-dione]"
5,1.8e+06,"C#CC(=O)N1CC(F)(COCCN2C[C@H]3CC(=O)N(c4cc(C(F)(F)F)cc(C)n4)[C@@H]3C(=O)N(C)c3cccc(Cl)c32)C1 [Example 303, (3aR,11aS)-6-chloro-5-(2-((3-fluoro-1-propioloylazetidin-3-yl)methoxy)ethyl)-10-methyl-1-(6-methyl-4-(trifluoromethyl)pyridin-2-yl)-1,3a,4,5,10,11a-hexahydro-2H-benzo[b]pyrrolo[2,3-f][1,4]diazocine-2,11(3H)-dione]"
6,1.87e+06,"Cc1cc(C(F)(F)F)cc(N2C(=O)C[C@@H]3CN(CCOCC4(F)CN(C(=O)/C=C/CN(C)C)C4)c4c(Cl)cccc4N(C)C(=O)[C@H]32)n1 [Example 304, (3aR,11aS)-6-chloro-5-(2-((1-((E)-4-(dimethylamino)but-2-enoyl)-3-fluoroazetidin-3-yl)methoxy)ethyl)-10-methyl-1-(6-methyl-4-(trifluoromethyl)pyridin-2-yl)-1,3a,4,5,10,11a-hexahydro-2H-benzo[b]pyrrolo[2,3-f][1,4]diazocine-2,11(3H)-dione]"
7,1.82e+06,"C=C(CN(C)C)C(=O)N1CC(F)(COCCN2C[C@H]3CC(=O)N(c4cc(C(F)(F)F)cc(C)n4)[C@@H]3C(=O)N(C)c3cccc(Cl)c32)C1 [Example 305, (3aR,11aS)-6-chloro-5-(2-((1-(2-((dimethylamino)methyl)acryloyl)-3-fluoroazetidin-3-yl)methoxy)ethyl)-10-methyl-1-(6-methyl-4-(trifluoromethyl)pyridin-2-yl)-1,3a,4,5,10,11a-hexahydro-2H-benzo[b]pyrrolo[2,3-f][1,4]diazocine-2,11(3H)-dione]"
